± gives the expanded uncertainty stated by the source.
Settings: Liquid; for mass density: 101.33 kPa; for vapor or sublimation pressure: Closed cell (Static) method

C1CCC2OC2C1 (stereo unspecified) [7-oxabicyclo[4.1.0]heptane]
mass density (277.7 K): 988.4 ± 2.5 kg/m3 | mass density (289 K): 978 ± 2.4 kg/m3 | mass density (293.2 K): 972.2 ± 2.3 kg/m3 | mass density (303.2 K): 963.8 ± 2.4 kg/m3 | mass density (313.2 K): 955 ± 2.5 kg/m3 | mass density (323.2 K): 944.8 ± 2.6 kg/m3 | mass density (333.2 K): 935.4 ± 2.8 kg/m3 | mass density (343.2 K): 925.5 ± 2.9 kg/m3 | mass density (353.2 K): 915.7 ± 3.1 kg/m3 | vapor or sublimation pressure (360.91 K): 25.5 ± 1.5 kPa | vapor or sublimation pressure (361.13 K): 25.8 ± 1.5 kPa | mass density (363.2 K): 903.9 ± 3.2 kg/m3 | vapor or sublimation pressure (382.47 K): 52.4 ± 1.5 kPa | vapor or sublimation pressure (383.09 K): 53.6 ± 1.5 kPa | vapor or sublimation pressure (404.87 K): 101.3 ± 10 kPa | vapor or sublimation pressure (405.48 K): 103.8 ± 10 kPa | vapor or sublimation pressure (423.87 K): 167 ± 10 kPa | vapor or sublimation pressure (443.95 K): 268 ± 10 kPa | vapor or sublimation pressure (453.99 K): 333 ± 10 kPa | vapor or sublimation pressure (463.99 K): 409 ± 10 kPa | vapor or sublimation pressure (474.03 K): 497 ± 10 kPa

Source: the NIST ThermoML archive (doi:10.1021/je050156k)
